{"source": "patent US20040166079A1", "about": "“N-Lauroyl amino acid composition for slimming the human body” (priority 2003, published 2004)", "system": "normal human dermal fibroblasts", "assay": "Measurement in vitro of the production of hyaluronic acid (STAINS ALL, 630 nm)", "assay_type": "cell-based", "conditions": "incubation concentration 10 ng/ml; 5 days", "protocol": "Glycosaminoglycans (GAGs) are the major proteoglycans of the dermis and play an essential role in maintaining the integrity of the skin. Hyaluronic acid is a major nonsulphated GAG which plays an essential role in the hydration of the skin by its capacity to fix up to 1000 times its weight as water. The effect of the products on the hyaluronic acid level was evaluated by a technique in vitro.\nThe hyaluronic acid level is measured in cultures of normal human dermal fibroblasts. The cells are incubated for 5 days in the presence of the products solubilized in the incubation medium. At the end of this incubation, the extracellular media in which the hyaluronic acid is secreted are collected. The hyaluronic acid is stained with a specific stain, STAINS ALL ((1-ethyl-2-[3-(1-ethylnaphtho-[1,2-d]thiazolin-2-ylidene)-2-methylpropenyl]naphtho-[1,2-d]thiazolium bromide, SIGMA), which interacts with it to produce a change in the absorption spectrum between 620 and 660 nm; the measurement is made by spectrophotometry. A hyaluronic acid series is prepared in parallel. […]\nEvaluation of the effects: After 5 days of incubation in the presence of the products, the incubation media are collected and incubated in the presence of STAINS ALL. […] The quantification is made by spectrophotometry at 630 nm. […] The results are expressed as extracellular hyaluronic acid relative to the control."}
{"substance": "EGF: reference in the hyaluronic acid production test, 10 ng/ml", "values": [{"measurement": "Extracellular hyaluronic acid produced (% relative to the control)", "value": 133, "unit": "%"}]}
